By pIC50 is commonly meant the IC50 on a negative log10 scale, so that one unit is a factor of ten. A high value points to a small IC50.

Each structure is given as a SMILES string. pIC50: −log10 of the molar value.

The first assay deals with SARS-CoV-2. As to the kind of experiment: microbe, parasite or virus in culture. The following applies: Severe acute respiratory syndrome coronavirus 2, Vero C1008, 48 h.
In turn, `CCC(=O)OC1CCC2C3CCC4=CC(=O)CCC4(C)C3CCC12C` (stereo not given) gave a pIC50 of under 4.70.
On the same count and under the same terms, the figure for `Nc1sc2c(c1C(=O)c1ccc(Cl)cc1)CCCC2` [T-62] is under 4.70; for `C[C@]12CCC(=O)C[C@H]1CC[C@@H]1[C@@H]2CC[C@]2(C)[C@@H](C(=O)COC(=O)CCC(=O)O)CC[C@@H]12` [HYDROXYDIONE SUCCINIC ACID] it is under 4.70; for `C[C@]12CC[C@@H]3c4ccc(O)cc4C[C@@H](CCCCCCCCC[S+]([O-])CCCC(F)(F)C(F)(F)F)[C@H]3[C@@H]1CC[C@@H]2O` (stereo not given in full) [FULVESTRANT] it is under 4.70.
On the same count and under the same terms, the figure for `CC(O)Cn1cnc2c1c(=O)n(C)c(=O)n2C` (stereo not given) [PROXYPHYLLINE] is under 4.70; for `CN(C)CCC=C1c2ccccc2CCc2ccccc21` [AMITRIPTYLINE] it is under 4.70.
In the case of `Cc1c(NC(=O)OC[C@@H]2COCCN2)cn2ncnc(Nc3ccc4c(cnn4Cc4cccc(F)c4)c3)c12` [AC-480], the pIC50 was under 4.70.
Still for that read-out and setting: as for `CN1CCCC(CN2c3ccccc3Sc3ccccc32)C1` (stereo not given) [MEPAZINE], the figure is under 4.70; as for `Cc1cccc(C)c1NC(=O)CN(CC(=O)O)CC(=O)O` [LIDOFENIN], under 4.70.
Take `COc1cccc(-c2cc(F)c(Nc3ncccc3C(=O)O)c(F)c2)c1` [ASLAN-003]: the pIC50 was under 4.70.
Still for that read-out and setting: as for `COC(=O)Nc1cccc(C)c1CNc1cccn2c(C)c(C)nc12` [PUMAPRAZOLE], the figure is under 4.70.
Same read-out and setting: the figure for `COc1cc(C(C)=O)ccc1OCCCN1CCC(c2noc3cc(F)ccc23)CC1` [ILOPERIDONE] is under 4.70; for `COc1ccccc1CN[C@H]1CCCN[C@H]1c1ccccc1` [CP-99994] it is under 4.70.
`NC(Cc1c[nH]c2ccc(O)cc12)C(=O)O` (stereo not given) had a pIC50 of under 4.70.
`O=C(OCc1ccccc1)c1ccccc1` [BENZYL BENZOATE] showed a pIC50 of under 4.70.
The same measure, in the same setting: as for `CC(=O)OC1(c2ccccc2)CCN(CCc2ccccc2)CC1`, the figure is under 4.70; as for `CCCCCCCCCCCCCCCC(=O)OCC(O)C1OC(=O)C(O)=C1O` (stereo not given), under 4.70; as for `NC(CC(=O)NO)C(=O)O` (stereo not given), under 4.70.
Still for that read-out and setting: as for `COc1ccc(C(=O)Nc2ccccc2CCC2CCCCN2C)cc1` (stereo not given) [ENCAINIDE], the figure is under 4.70.
In turn, `CCOC(=O)[C@H](CCc1ccccc1)N[C@H]1CS[C@H](c2cccs2)CN(CC(=O)O)C1=O` [TEMOCAPRIL] had a pIC50 of under 4.70.
On the same count and under the same terms, as for `COc1cccc(-c2cc(=O)c3ccccc3o2)c1N`, the figure is under 4.70.
`COc1ccc(/C=C\c2cc(OC)c(OC)c(OC)c2)cc1O` [COMBRETASTATIN A4] showed a negative-log IC50 (pIC50) of under 4.70.
Still for that read-out and setting: the figure for `CN1C(=N)N(c2ccccc2)CC1=O` [AZOLIMINE] is under 4.70; for `CCOC(C(=O)OCCN(C)C)(c1ccccc1)c1ccccc1` [DIMENOXADOL] it is under 4.70.
On the same count and under the same terms, the figure for `C[C@H]1CCC[C@H](O)CCCCCc2cc(O)cc(O)c2C(=O)O1` [ZERANOL] is under 4.70; for `N/C(=N\C(=O)c1nc(Cl)c(N)nc1N)NCc1ccccc1` [BENZAMIL] it is under 4.70.
Still for that read-out and setting: the figure for `CC(=O)OCC(=O)C12N=C(C)OC1CC1C3CCC4=CC(=O)C=CC4(C)C3(F)C(O)CC12C` (stereo not given) is under 4.70; for `Cc1sc2c(c1C)C(c1ccc(Cl)cc1)=N[C@@H](CC(=O)Nc1ccc(O)cc1)c1nnc(C)n1-2` [BIRABRESIB] it is under 4.70; for `O=C(O)[C@H]1CCCNC1` [(S)-NIPECOTIC ACID] it is under 4.70.
With `Cc1cc(=O)oc2cc(O)cc(O)c12` [5,7-DIHYDROXY-4-METHYLCOUMARIN], the negative logarithm of the IC50 (pIC50) is under 4.70.
Turning to `CN(C)CCCn1c(=O)n(-c2ccccc2)c2cc(Cl)ccc21` [CLODAZON], the negative logarithm of the IC50 (pIC50) is under 4.70.
The same measure, in the same setting: the figure for `CC1O[C@@H](OC2C(O)[C@H](OCCc3ccc(O)c(O)c3)OC(CO)[C@H]2OC(=O)/C=C/c2ccc(O)c(O)c2)C(O)C(O)[C@H]1O` (stereo not given in full) is under 4.70; for `CCN(CC)CCOc1ccc2c(c1)C(=O)c1cc(OCCN(CC)CC)ccc1-2` [TILORONE] it is under 4.70.
As to `CC(=O)Nc1ccc(S(=O)(=O)c2ccc(NC(C)=O)cc2)cc1` [ACEDAPSONE], the pIC50 was under 4.70.
Same read-out and setting: the figure for `COc1ccc(-c2ccc(N)[n+](CCCC(=O)O)n2)cc1` is under 4.70; for `NS(=O)(=O)c1cc(C(=O)O)c(NCc2ccco2)cc1Cl` [FUROSEMIDE] it is under 4.70; for `COc1c(N2CCC/C(=C(/F)CN)C2)c(F)cc2c(=O)c(C(=O)O)cn(C3CC3)c12` it is under 4.70.
Molecule `O=C(C[S+]([O-])Cc1ccco1)NC/C=C\COc1cc(CN2CCCCC2)ccn1` (stereo not given) [LAFUTIDINE] gave a pIC50 of under 4.70.
On the same count and under the same terms, the figure for `N[C@@H]1CC[C@@H](c2ccc(Cl)c(Cl)c2)c2ccccc21` [DASOTRALINE] is under 4.70; for `CCOC(=O)N1c2ccc(C(F)(F)F)cc2[C@@H](N(Cc2cc(C(F)(F)F)cc(C(F)(F)F)c2)C(=O)OC)C[C@H]1CC` [TORCETRAPIB] it is under 4.70.
`Cc1onc(-c2ccccc2Cl)c1C(=O)N[C@@H]1C(=O)N2[C@@H]1SC(C)(C)[C@@H]2C(=O)O` [CLOXACILLIN]: the pIC50 is under 4.70.
The same measure, in the same setting: the figure for `CC12CCC(=O)C=C1CCC1C2C(O)CC2(C)C1CCC2(O)C(=O)COP(=O)(O)O` (stereo not given) is under 4.70; for `CN(C)CCN(Cc1ccc(Cl)s1)c1ccccn1` [CHLOROTHEN] it is under 4.70.
The molecule `COC(=O)C1=C(C)NC(C)=C(C(=O)OC)C1c1ccccc1[N+](=O)[O-]` [NIFEDIPINE] had a pIC50 of under 4.70.
`CCC1(c2cccc(O)c2)CCCCN(C)C1` (stereo not given) [MEPTAZINOL]: the pIC50 was under 4.70.

The assay is the same for the next values; noted with them: Severe acute respiratory syndrome coronavirus 2, Vero C1008, 48 h, read-out: pIC50 (converted).
In the case of `CCC(=O)OC1CCC2C3CCC4=CC(=O)CCC4(C)C3CCC12C` (stereo not given), the IC50 is over 20 µM.
On to `Nc1sc2c(c1C(=O)c1ccc(Cl)cc1)CCCC2` [T-62], for which the IC50 is over 20 µM.
Same read-out and setting: the figure for `C[C@]12CCC(=O)C[C@H]1CC[C@@H]1[C@@H]2CC[C@]2(C)[C@@H](C(=O)COC(=O)CCC(=O)O)CC[C@@H]12` [HYDROXYDIONE SUCCINIC ACID] is over 20 µM; for `C[C@]12CC[C@@H]3c4ccc(O)cc4C[C@@H](CCCCCCCCC[S+]([O-])CCCC(F)(F)C(F)(F)F)[C@H]3[C@@H]1CC[C@@H]2O` (stereo not given in full) [FULVESTRANT] it is over 20 µM; for `CC(O)Cn1cnc2c1c(=O)n(C)c(=O)n2C` (stereo not given) [PROXYPHYLLINE] it is over 20 µM.
Turning to `CN(C)CCC=C1c2ccccc2CCc2ccccc21` [AMITRIPTYLINE], the IC50 was over 20 µM.
On the same count and under the same terms, the figure for `Cc1c(NC(=O)OC[C@@H]2COCCN2)cn2ncnc(Nc3ccc4c(cnn4Cc4cccc(F)c4)c3)c12` [AC-480] is over 20 µM; for `CN1CCCC(CN2c3ccccc3Sc3ccccc32)C1` (stereo not given) [MEPAZINE] it is over 20 µM.
On the same count and under the same terms, as for `Cc1cccc(C)c1NC(=O)CN(CC(=O)O)CC(=O)O` [LIDOFENIN], the figure is over 20 µM; as for `COc1cccc(-c2cc(F)c(Nc3ncccc3C(=O)O)c(F)c2)c1` [ASLAN-003], over 20 µM; as for `COC(=O)Nc1cccc(C)c1CNc1cccn2c(C)c(C)nc12` [PUMAPRAZOLE], over 20 µM.
The same measure, in the same setting: as for `COc1cc(C(C)=O)ccc1OCCCN1CCC(c2noc3cc(F)ccc23)CC1` [ILOPERIDONE], the figure is over 20 µM; as for `COc1ccccc1CN[C@H]1CCCN[C@H]1c1ccccc1` [CP-99994], over 20 µM; as for `NC(Cc1c[nH]c2ccc(O)cc12)C(=O)O` (stereo not given), over 20 µM.
Turning to `O=C(OCc1ccccc1)c1ccccc1` [BENZYL BENZOATE], the IC50 was over 20 µM.
Same read-out and setting: as for `CC(=O)OC1(c2ccccc2)CCN(CCc2ccccc2)CC1`, the figure is over 20 µM.
For `CCCCCCCCCCCCCCCC(=O)OCC(O)C1OC(=O)C(O)=C1O` (stereo not given), the IC50 was over 20 µM.
Take `NC(CC(=O)NO)C(=O)O` (stereo not given): the IC50 is over 20 µM.
The same measure, in the same setting: the figure for `COc1ccc(C(=O)Nc2ccccc2CCC2CCCCN2C)cc1` (stereo not given) [ENCAINIDE] is over 20 µM.
Still for that read-out and setting: the figure for `CCOC(=O)[C@H](CCc1ccccc1)N[C@H]1CS[C@H](c2cccs2)CN(CC(=O)O)C1=O` [TEMOCAPRIL] is over 20 µM; for `COc1cccc(-c2cc(=O)c3ccccc3o2)c1N` it is over 20 µM; for `COc1ccc(/C=C\c2cc(OC)c(OC)c(OC)c2)cc1O` [COMBRETASTATIN A4] it is over 20 µM.
On the same count and under the same terms, the figure for `CN1C(=N)N(c2ccccc2)CC1=O` [AZOLIMINE] is over 20 µM; for `CCOC(C(=O)OCCN(C)C)(c1ccccc1)c1ccccc1` [DIMENOXADOL] it is over 20 µM; for `C[C@H]1CCC[C@H](O)CCCCCc2cc(O)cc(O)c2C(=O)O1` [ZERANOL] it is over 20 µM.
Take `N/C(=N\C(=O)c1nc(Cl)c(N)nc1N)NCc1ccccc1` [BENZAMIL]: the IC50 was over 20 µM.
The same measure, in the same setting: as for `CC(=O)OCC(=O)C12N=C(C)OC1CC1C3CCC4=CC(=O)C=CC4(C)C3(F)C(O)CC12C` (stereo not given), the figure is over 20 µM; as for `Cc1sc2c(c1C)C(c1ccc(Cl)cc1)=N[C@@H](CC(=O)Nc1ccc(O)cc1)c1nnc(C)n1-2` [BIRABRESIB], over 20 µM; as for `O=C(O)[C@H]1CCCNC1` [(S)-NIPECOTIC ACID], over 20 µM.
On to `Cc1cc(=O)oc2cc(O)cc(O)c12` [5,7-DIHYDROXY-4-METHYLCOUMARIN], for which the IC50 was over 20 µM.
On the same count and under the same terms, as for `CN(C)CCCn1c(=O)n(-c2ccccc2)c2cc(Cl)ccc21` [CLODAZON], the figure is over 20 µM; as for `CC1O[C@@H](OC2C(O)[C@H](OCCc3ccc(O)c(O)c3)OC(CO)[C@H]2OC(=O)/C=C/c2ccc(O)c(O)c2)C(O)C(O)[C@H]1O` (stereo not given in full), over 20 µM.
On to `CCN(CC)CCOc1ccc2c(c1)C(=O)c1cc(OCCN(CC)CC)ccc1-2` [TILORONE], for which the IC50 was over 20 µM.
Still for that read-out and setting: the figure for `CC(=O)Nc1ccc(S(=O)(=O)c2ccc(NC(C)=O)cc2)cc1` [ACEDAPSONE] is over 20 µM; for `COc1ccc(-c2ccc(N)[n+](CCCC(=O)O)n2)cc1` it is over 20 µM.
As for `NS(=O)(=O)c1cc(C(=O)O)c(NCc2ccco2)cc1Cl` [FUROSEMIDE], the IC50 was over 20 µM.
Still for that read-out and setting: as for `COc1c(N2CCC/C(=C(/F)CN)C2)c(F)cc2c(=O)c(C(=O)O)cn(C3CC3)c12`, the figure is over 20 µM.
The same measure, in the same setting: as for `O=C(C[S+]([O-])Cc1ccco1)NC/C=C\COc1cc(CN2CCCCC2)ccn1` (stereo not given) [LAFUTIDINE], the figure is over 20 µM; as for `N[C@@H]1CC[C@@H](c2ccc(Cl)c(Cl)c2)c2ccccc21` [DASOTRALINE], over 20 µM; as for `CCOC(=O)N1c2ccc(C(F)(F)F)cc2[C@@H](N(Cc2cc(C(F)(F)F)cc(C(F)(F)F)c2)C(=O)OC)C[C@H]1CC` [TORCETRAPIB], over 20 µM.
In the case of `Cc1onc(-c2ccccc2Cl)c1C(=O)N[C@@H]1C(=O)N2[C@@H]1SC(C)(C)[C@@H]2C(=O)O` [CLOXACILLIN], the IC50 is over 20 µM.
In the case of `CC12CCC(=O)C=C1CCC1C2C(O)CC2(C)C1CCC2(O)C(=O)COP(=O)(O)O` (stereo not given), the IC50 is over 20 µM.
In the case of `CN(C)CCN(Cc1ccc(Cl)s1)c1ccccn1` [CHLOROTHEN], the IC50 was over 20 µM.
Turning to `COC(=O)C1=C(C)NC(C)=C(C(=O)OC)C1c1ccccc1[N+](=O)[O-]` [NIFEDIPINE], the IC50 was over 20 µM.
On the same count and under the same terms, as for `CCC1(c2cccc(O)c2)CCCCN(C)C1` (stereo not given) [MEPTAZINOL], the figure is over 20 µM.

The record behind these values is ChEMBL document CHEMBL4651402, “Screening of ~5500 FDA-approved drugs and clinical candidates for anti-SARS-CoV-2 activity” (2021).
